Data reported in US20260034277A1, “SYSTEMS AND METHODS FOR PATHOGEN INACTIVATION OF BLOOD PRODUCTS” (Cerus Corporation, priority 2024, published 2026).

Experiments:
[1] = Residual amotosalen (S-59) pre- and post-UVA in treated platelets, HPLC, manual dosing; type: physicochemical; conditions: for Post-UVA S-59: platelets 47% plasma/53% PAS
Description: Multiple studies were performed to determine the level of residual compound remaining after photochemical treatment of platelets with a psoralen for pathogen inactivation. More specifically, the studies were performed using a range of platelet volumes (e.g., 200 mL-450 mL; 50 mL volume increments) and using a single initial input concentration of the psoralen compound, amotosalen (S-59) by changing input volume. For each volume tested, units of platelets, prepared in 47% plasma/53% PAS, were pooled and split into two to three individual units, each in an illumination container of an INTERCEPT® Blood System processing set. The individual units were each dosed with amotosalen from an initial starting concentration (e.g., stock solution) at a volume needed to achieve a final 70 μM target concentration for each platelet volume, mixed well, and subjected to illumination with UVA light. The doses of UVA light tested for each volume included, for example, one or more light doses ranging from 2.5 J/cm^2 to 6.5 J/cm^2. (e.g., 2.5-4.5 J/cm^2 for 200 mL, 3.5-4.0 J/cm^2 for 250 mL 4.5-6.5 J/cm^2 for 300 mL, 5.2 J/cm^2 for 350 mL, 5.5-6.5 J/cm^2 for 400 mL, 6.4-6.5 J/cm^2 for 450 mL). UVA treatment was performed in the illumination container using an illuminator device with LED light (e.g., narrow bandwidth) having peak wavelength between 340-350 nm. Samples were collected both pre- and post-UVA illumination for HPLC analysis of amotosalen concentration.
From the multiple studies above, UVA light doses that provided low residual amotosalen levels (e.g., less than 7.5 μM) post-UVA treatment were selected for each specified platelet volume. These light doses are shown in Table 1 below, together with a corresponding measured volume of platelets, which the light dose may be used in conjunction with. This exemplary light dose and volume relationship identified in the studies may be further defined in the graph of FIG. 4A, which plots UVA light dose versus volume for achieving low residual amotosalen levels.
Each of the 40 μM, 50 μM, 60 μM and 70 μM test conditions used 250 mL sample volumes and UVA light doses of 3.8 J/cm^2. Amotosalen concentrations were determined before and after illumination with UVA.

[2] = S-59 photoconversion in platelets after dosing-device delivery, HPLC pre- and post-illumination; type: physicochemical; conditions: target 55 μM
Description: After confirming the accuracy of S-59 dosing into PAS, the next study evaluated dosing of S-59 into a blood component, platelets suspended in plasma and PAS, and photoconversion of S-59 post-UVA treatment to determine residual S-59 levels and generate (e.g., plot) a volume to light dose curve, similar to Example 1. Different size illumination containers (1.0 L and 1.3 L) were evaluated with multiple different platelet volumes and multiple different UVA light doses used for photochemical treatment of each volume and container size.
More specifically, platelets suspended in […]/53% PAS at volumes of 200 mL, 250 mL or 300 mL in a 1.0 L illumination container, and 300 mL, 350 mL or 450 mL in a 1.3 L illumination container, were dosed at varying input volumes of the S-59 psoralen compound to achieve a target final concentration of 55 μM. Samples were taken to confirm pre-illumination S-59 concentration and each of the S-59 containing platelet volumes was then illuminated with different light doses as shown in the following Tables 8A and 8B using an illuminator device with LED light sources (e.g., narrow bandwidth) having peak wavelength between 340-350 nm.
Pathogen inactivation of both viruses and bacteria was also tested using dosing device system-based quantized dosing of amotosalen and the treatment parameters described above. In one study, four units of platelets in 47% plasma/53% PAS at a higher 450 mL volume were inoculated in a 1.3 L illumination container with bluetongue virus (BTV) at a target pathogen input concentration of approximately 5.0 log PFU/mL per unit and dosed with amotosalen (S-59) to achieve at a target concentration of 55 μM. The units were mixed, and samples were collected from each unit prior to UV illumination to determine pre-treatment viral titers and S-59 concentration. The BTV-contaminated platelet units were then subjected to a UVA light dose of 6.3 J/cm^2 using an illuminator with LED light sources having peak wavelength between 340-350 nm. Samples were collected post-illumination, and both the pre- and post-UVA illumination samples were analyzed by standard plaque assay to determine the level of virus inactivation and by HPLC to determine the S-59 concentration.
A similar study was performed with the bacterium Klebsiella pneumoniae. Four units of platelets in 47% plasma/53% PAS at a volume of 450 mL were inoculated in a 1.3 L illumination container with an overnight culture of Klebsiella pneumoniae at a target input pathogen concentration of approximately 8 log CFU/mL per unit and dosed with S-59 to achieve a target concentration of 55 μM. Samples were collected pre- and post-UVA illumination with a light dose of 6.3 J/cm^2 for determination of bacterial titers by standard colony forming unit assay and S-59 concentration by HPLC.

## Cc1oc2c(C)c3oc(=O)cc(C)c3cc2c1COCCN [S-59, 3-(2-aminoethoxymethyl)-2,5,9-trimethylfuro[3,2-g]chromen-7-one]
[1]; 200 mL, target 70 μM, UVA 3.2 J/cm^2
  Post-UVA S-59: 4.5 ± 1.5 µM
[1]; 250 mL, target 70 μM, UVA 3.8 J/cm^2
  Post-UVA S-59: 5.0 ± 1.1 µM
[1]; 300 mL, target 70 μM, UVA 4.5 J/cm^2
  Post-UVA S-59: 5.1 ± 1.3 µM
[1]; 350 mL, target 70 μM, UVA 5.2 J/cm^2
  Post-UVA S-59: 5.0 ± 0.6 µM
[1]; 400 mL, target 70 μM, UVA 6.0 J/cm^2
  Post-UVA S-59: 4.4 ± 0.8 µM
[1]; 450 mL, target 70 μM, UVA 6.4 J/cm^2
  Post-UVA S-59: 5.2 ± 0.8 µM
[1]; target 40 μM, 250 mL, UVA 3.8 J/cm^2
  Post-UVA residual amotosalen concentration: 2.3 ± 0.7 µM
[1]; target 50 μM, 250 mL, UVA 3.8 J/cm^2
  Post-UVA residual amotosalen concentration: 3.0 ± 0.8 µM
[1]; target 60 μM, 250 mL, UVA 3.8 J/cm^2
  Post-UVA residual amotosalen concentration: 3.9 ± 1.4 µM
[1]; target 70 μM, 250 mL, UVA 3.8 J/cm^2
  Post-UVA residual amotosalen concentration: 5.0 ± 1.1 µM
[2]; 1.0 L container, 200 mL platelets, 2.8 J/cm^2
  Post-UVA S-59: 5.22 ± 0.50 µM
[2]; 1.0 L container, 200 mL platelets, 3.0 J/cm^2
  Post-UVA S-59: 4.40 ± 0.64 µM
[2]; 1.0 L container, 200 mL platelets, 3.2 J/cm^2
  Post-UVA S-59: 3.71 ± 0.07 µM
[2]; 1.0 L container, 200 mL platelets, 3.4 J/cm^2
  Post-UVA S-59: 3.09 ± 0.18 µM
[2]; 1.0 L container, 250 mL platelets, 3.4 J/cm^2
  Post-UVA S-59: 4.25 ± 0.13 µM
[2]; 1.0 L container, 250 mL platelets, 3.6 J/cm^2
  Post-UVA S-59: 3.83 ± 0.74 µM
[2]; 1.0 L container, 250 mL platelets, 3.8 J/cm^2
  Post-UVA S-59: 3.81 ± 0.49 µM
[2]; 1.0 L container, 250 mL platelets, 4.0 J/cm^2
  Post-UVA S-59: 3.11 ± 1.18 µM
[2]; 1.0 L container, 300 mL platelets, 4.1 J/cm^2
  Post-UVA S-59: 7.13 ± 2.95 µM
[2]; 1.0 L container, 300 mL platelets, 4.3 J/cm^2
  Post-UVA S-59: 6.85 ± 3.00 µM
[2]; 1.0 L container, 300 mL platelets, 4.6 J/cm^2
  Post-UVA S-59: 2.86 ± 1.36 µM
[2]; 1.0 L container, 300 mL platelets, 4.8 J/cm^2
  Post-UVA S-59: 3.63 ± 1.66 µM
[2]; 1.3 L container, 300 mL platelets, 4.1 J/cm^2
  Post-UVA S-59: 4.64 ± 0.13 µM
[2]; 1.3 L container, 300 mL platelets, 4.3 J/cm^2
  Post-UVA S-59: 3.43 ± 1.30 µM
[2]; 1.3 L container, 350 mL platelets, 4.8 J/cm^2
  Post-UVA S-59: 3.54 ± 1.01 µM
[2]; 1.3 L container, 350 mL platelets, 5.0 J/cm^2
  Post-UVA S-59: 2.98 ± 0.91 µM
[2]; 1.3 L container, 450 mL platelets, 6.1 J/cm^2
  Post-UVA S-59: 3.79 ± 0.49 µM
[2]; 1.3 L container, 450 mL platelets, 6.3 J/cm^2
  Post-UVA S-59: 3.56 ± 0.37 µM
[2]; BTV-inoculated units, 450 mL platelets, 1.3 L container, 6.3 J/cm^2
  Post-UVA S-59: 3.0 ± 0.7 µM
[2]; K. pneumoniae-inoculated units, 450 mL platelets, 1.3 L container, 6.3 J/cm^2
  Post-UVA S-59: 3.2 ± 0.5 µM
